From patent US8716355B2, “Hydroxylated tolans and related compounds in the treatment of a cancer” (Kent State University, priority 2007, dated 2014)
“And” between values parts separate entries of the source, which are not always exact repeats. Equal values may be shown once. Read-outs that look alike come from different tables or passages of the source.

How the values were obtained:
DU145 = assay: MTT cytotoxicity, DU145 prostate cancer cells; type: cell-based, human; settings: for IC50: MTT, read-out: CD50 against DU145
Experimental: As a first step, the antitumor activity of the tolans was assessed against a panel of three cancer cells lines that produce solid tumors upon implantation into animals. DU145 is an androgen-independent prostate cancer cells. T24 is a transitional cell bladder carcinoma cell. MDAH2274 (“MDAH) is an endometroid ovarian adenocarcinoma cell. To assess the selectivity of this antitumor activity, the toxicity of the tolans to normal human fibroblasts (MHRF) was examined. Subsequently, studies with Tolan-3 (KST-201) were expanded to test its action on a wide range of tumor cell lines.
(§1) Cell killing was evaluated using the colorimetric MTT assay. The assay measures the formation of a colored product from a chromogenic precursor, the tetrazole 3-[4,5-dimethylthiazol-2-yl]-2,5 diphenyltetrazolium bromide (MTT). The yellow MTT is reduced to purple formazan in the mitochondria of living cells. A solubilization solution (typically dimethyl sulfoxide or sodium dodecyl sulfate in dilute hydrochloric acid) is added to dissolve the insoluble purple formazan product into a colored solution. The absorbance of this colored solution is quantified by measuring at a certain wavelength (usually between 500 and 600 nm) by a spectrophotometer. The amount of purple formazan product generated is proportional to the number of viable cells (Mosmann, T., 1983, J. Immunol. Meth. 65:55-63; Wilson, A. P., Cytotoxicity and Viability Assays. In: Animal Cell Culture: A Practical Approach, 3rd ed. (Masters, J R W, ed.) Oxford University Press: Oxford, Vol. 1, pp. 175-219. 2000). This MTT assay is used widely to assess the cytotoxicity and selectivity of compounds such as anti-cancer drugs. The assay is suitable for rapid toxicity characterization of a test agent such as a drug formulation. […] A lower CD50 indicates a greater cytotoxic activity (as a lower amount of the agent is needed to achieve a fixed level of cytotoxicity). Two agents can be compared by examining the fold-increase or decrease in their CD50 values.

HT29 = assay: MTT cytotoxicity, HT29 colon; type: cell-based; settings: Homo sapiens, HT-29, 72 h; 3 Days; read-out: CD50 (μM) HT29
Experimental: as §1, with “Two agents can be compared by examining the fold-increase or decrease in their CD50 values.” left out

NF-κB p65 = NF-κB p65 DNA-binding activity in DU145 cells (ELISA); type: cell-based, human; settings: for DNA binding of p65, % of basal activity: 100 μM
Experimental: An ELISA kit (Pierce, Rockford, Ill.) was used to detect the active forms of NF-κB p65 by measuring its binding to a consensus DNA sequence. A primary antibody specific for p65 and a secondary horse-radish peroxidase (HRP)-conjugated antibody were used sequentially to produce immobilized p65-HRP complexes. A chemiluminescent substrate for HRP was added and the reaction read using the Fluoroskan Ascent FL plate reader
An ELISA kit (Pierce, Rockford, Ill.) was used to detect the active forms of NF-κB p65 by measuring its binding to a consensus DNA sequence. […] As controls, untreated cells were prepared under the same conditions. Cells were collected by scraping and incubated in ice-cold RIPA lysis buffer containing 1% NP40, 0.5% sodium deoxycholate, 0.1% SDS and protease inhibitor cocktail. After centrifugation, the supernatant was transferred to a streptavidin-coated 96-well plate. Active p65 in the sample binds to the immobilized DNA molecules.
To ensure the signal specificity, competitive DNA fragments containing a NF-κB binding site were used to prevent the binding of NF-κB to the consensus sequence. A primary antibody specific for p65 and a secondary HRP-conjugated antibody were added to each well sequentially, resulting in an immobilized p65-HRP complex. Unbound antibodies were washed away. A mixture of luminol/enhancer and peroxide solution was added into each well as a chemiluminescent substrate for HRP. The chemiluminescent signal, proportional to the relative amount of active p65 in the sample, was detected using the Fluoroskan Ascent FL plate reader (Thermo, Waltham, Mass.).
DNA sequences containing p65-binding site were immobilized to wells of 96-well plates, allowing activated p65 to bind. After washing, the amount of bound p65 was detected and quantified by the above method. The DNA-binding of active p65 was determined by the intensity of chemiluminescence produced by DNA-p65-HRP complex immobilized on well surfaces. The results represent the mean±SD of triplicate determinations. An inhibitor of p65 binding to DNA was added to confirm specificity. […]

T24 = assay: MTT cytotoxicity, T24 bladder cancer cells; type: cell-based, human
Experimental: As a first step, the antitumor activity of the tolans was assessed against a panel of three cancer cells lines that produce solid tumors upon implantation into animals. DU145 is an androgen-independent prostate cancer cells. T24 is a transitional cell bladder carcinoma cell. MDAH2274 (“MDAH) is an endometroid ovarian adenocarcinoma cell. To assess the selectivity of this antitumor activity, the toxicity of the tolans to normal human fibroblasts (MHRF) was examined.
as §1, with “The amount of purple formazan product generated is proportional to the number of viable cells (Mosmann, T., 1983, J. Immunol. Meth. 65:55-63; Wilson, A. P., Cytotoxicity and Viability Assays. In: Animal Cell Culture: A Practical Approach, 3rd ed. (Masters, J R W, ed.) Oxford University Press: Oxford, Vol. 1, pp. 175-219. 2000).” left out, “values. […]” for “values.”

[1] = Homo sapiens, DU-145, 24 h, 1 day incubation
[2] = Homo sapiens, DU-145, 48 h, 2 days incubation
[3] = Homo sapiens, DU-145, 72 h, 3 days incubation
[4] = MTT, 1 day incubation, read-out: CD50 against T24, compound tested individually

In the case of `Oc1ccc(C#Cc2ccc(O)cc2)cc1` [KST-201, 4,4′-dihydroxytolan], the “Fold more potent against DU145 cells compared to control MHRF fibroblasts” value (DU145) is reported as 16 fold, the IC50 (DU145; [1]) is reported as 57 µM and the IC50 (DU145; [2]) is reported as 16.8 ± 0.63 µM. For the same compound, the IC50 (DU145; [3]) was 9.4 µM, the IC50 (DU145; 1 day incubation) was 57.3 ± 0.81 µM and the “Fold more toxic to DU145 prostate cancer cells than resveratrol” value (DU145; Table 15 vs Table 14) was 3 fold. For the same compound, the IC50 (HT29) was 79 ± 0.8 µM, the “Reduction of DNA-binding activity of NF-κB by at least 50%” value (NF-κB p65; 12-hour treatment) was “not sufficient to reduce DNA-binding activity of NF-κB” and the “NF-κB inhibition compared with resveratrol” value (NF-κB p65; 24-hour treatment, 50 and 100 μM) was “more effective inhibitor of NF-κB”. For the same compound, the “Fold more potent in killing T24 cells vs. control MHRF fibroblasts” value (T24) was 18 fold, the IC50 (T24; Homo sapiens, T-24, 24 h, VC:KST-201 200:1, 1 day, read-out: CD50 (μM) of each Compound tested in combination, T24) was 3.19 µM and the IC50 (T24; Homo sapiens, T-24, 48 h, VC:KST-201 200:1, 2 days, read-out: CD50 (μM) of each Compound tested in combination, T24) was 3.17 µM. The IC50 (T24; Homo sapiens, T-24, 72 h, MTT, 3 days incubation, read-out: CD50 against T24) was 8.5 µM, the IC50 (T24; [4]) was 83 µM and 82.6 µM and the IC50 (T24; MTT, 2 days incubation, read-out: CD50 against T24, compound tested individually) was 31.1 ± 0.81 µM. For the same compound, the “Fold more toxic to T24 bladder cancer cells than resveratrol” value (T24; Table 15 vs Table 14) was 2.8 fold and the “Increase of cytotoxic potency when given together, T24” value (T24; VC:KST-201 200:1) was “about 7 fold”.

For `Oc1ccc(/C=C/c2cc(O)cc(O)c2)cc1` [Resveratrol, 3,5,4′-trihydroxy-trans-stilbene, reference compound], the IC50 (DU145; [1]) was 92 µM, the IC50 (DU145; [2]) was 58.2 ± 0.4 µM and the IC50 (DU145; [3]) was 28 µM. For the same compound, the IC50 (DU145; 1 day incubation) was 92.2 ± 2.9 µM, the IC50 (DU145; 3 days incubation) was 27.9 ± 0.65 µM and the IC50 (HT29) was 163 ± 0.3 µM. The “DNA binding of p65, % of basal activity” value (NF-κB p65; 12 hours) was 55.3%, the “DNA binding of p65, % of basal activity” value (NF-κB p65; 24 hours) was 40.2% and the “DNA binding activity of p65, % of basal activity” value (NF-κB p65; 24-hour treatment at 5, 25 and 50 μM) was ~80%. For the same compound, the IC50 (T24; Homo sapiens, T-24, 24 h, MTT, 1 day incubation, read-out: CD50 against T24, compound tested individually) was 36 µM, the IC50 (T24; Homo sapiens, T-24, 48 h, MTT, 2 days incubation, read-out: CD50 against T24, compound tested individually) was 29.1 ± 0.05 µM and the IC50 (T24; [4]) was 35.7 ± 1 µM. The IC50 (T24; MTT, 3 days incubation, listed as resveratrol, read-out: CD50 against T24) was 23 µM and the IC50 (T24; MTT, 3 days incubation, read-out: CD50 against T24) was 22.6 ± 0.25 µM.
